According to US20250304559A1, “Ether-Linked Antiviral Compounds” (Pfizer Inc., priority 2021, published 2025):
Where two headings read alike, the source gives them in different places.

Experiments:
SARS-CoV-2 3CL protease = molecular target: T1, SARS-CoV-2 3CL protease (Severe acute respiratory syndrome coronavirus 2, UniProt P0DTD1); experiment: SARS-CoV-2 Coronavirus 3C Protease FRET Assay; assay type: biochemical; conditions: Morrison equation fit, 15 nM enzyme, 25 μM peptide substrate
T1 construct: measures the activity of full-length SARS-CoV-2 3CL protease

[1] = tested on: SARS-CoV-2 (USA_WA1/2020); experiment: Antiviral Activity from SARS-CoV-2 Infection (cytopathic effect, Cell Titer-Glo); assay type: cell-based; conditions: VeroE6 cells enriched for hACE2, MOI 0.002, 3-day incubation, tested alone or with P-gp inhibitor CP-100356 2 μM (table does not say which), read-out: Geometric Mean EC50
[2] = Examples 14-78 and 114 (second head of Table 2), read-out: Geometric Mean Ki (nM) IC50
[3] = Severe acute respiratory syndrome coronavirus 2, Vero C1008, 72 h
[4] = Examples 1-13, 60 minutes at 23° C., read-out: Geometric Mean Ki

Row | SMILES | Ki (SARS-CoV-2 3CL protease; [2]) [nM] | EC50 [1, 3] [nM] | EC50 [1] [nM] | Ki (SARS-CoV-2 3CL protease; [4]) [nM]
1 | CC(C)[C@H](NC(=O)C(F)(F)F)C(=O)N1C[C@H]2[C@@H]([C@H]1C(=O)NC(C[C@@H]1CCNC1=O)C(=O)COc1ccc(F)cc1F)C2(C)C (mixture of isomers) [Example 35, (1R,2S,5S)-N-{(2RS)-4-(2,4-difluorophenoxy)-3-oxo-1-[(3S)-2-oxopyrrolidin-3-yl]butan-2-yl}-6,6-dimethyl-3-[N-(trifluoroacetyl)-L-valyl]-3-azabicyclo[3.1.0]hexane-2-carboxamide] | 2.76 | 93.8 | – | –
2 | CC(C)[C@H](NC(=O)C(F)(F)F)C(=O)N1CC[C@@H](C)C[C@H]1C(=O)N[C@@H](C[C@@H]1CCNC1=O)C(=O)COc1ccc(F)cc1F (relative stereo) [Example 69, (2R*,4S*)-N-{(2S)-4-(2,4-difluorophenoxy)-3-oxo-1-[(3S)-2-oxopyrrolidin-3-yl]butan-2-yl}-4-methyl-1-[N-(trifluoroacetyl)-L-valyl]piperidine-2-carboxamide] | 219 | 562 | – | –
3 | CC(C)[C@H](NS(C)(=O)=O)C(=O)N1CCC2(CC2)C[C@H]1C(=O)N[C@@H](C[C@@H]1CCNC1=O)C(=O)COc1ccc(F)cc1F (single isomer, unassigned) [Example 59, (5R*)-N-{(2S)-4-(2,4-difluorophenoxy)-3-oxo-1-[(3S)-2-oxopyrrolidin-3-yl]butan-2-yl}-6-[N-(methanesulfonyl)-L-valyl]-6-azaspiro[2.5]octane-5-carboxamide, DIAST-1] | 9.27 | – | 299 | –
4 | CC(C)[C@H](NS(C)(=O)=O)C(=O)N1CCC(C)(C)CC1C(=O)N[C@@H](C[C@@H]1CCNC1=O)C(=O)COc1ccc(F)cc1F (single isomer, unassigned) [Example 60, (2R*)-N-{(2S)-4-(2,4-difluorophenoxy)-3-oxo-1-[(3S)-2-oxopyrrolidin-3-yl]butan-2-yl}-1-[N-(methanesulfonyl)-L-valyl]-4,4-dimethylpiperidine-2-carboxamide] | 21.8 | 456 | – | –
5 | CC(C)C[C@@H](C(=O)N1C[C@H]2[C@@H]([C@H]1C(=O)N[C@@H](C[C@@H]1CCNC1=O)C(=O)COc1cc(C(F)(F)F)nn1C)C2(C)C)N(C)C(C)C (single isomer, unassigned) [Example 65, (1R,2S,5S)-6,6-dimethyl-3-[N-methyl-N-(propan-2-yl)-L-leucyl]-N-{(2R*)-4-{[1-methyl-3-(trifluoromethyl)-1H-pyrazol-5-yl]oxy}-3-oxo-1-[(3S)-2-oxopyrrolidin-3-yl]butan-2-yl}-3-azabicyclo[3.1.0]hexane-2-carboxamide, DIAST-1] | 96.7 | 133 | – | –
6 | CC(C)[C@H](NS(C)(=O)=O)C(=O)N1CCC2(CC2)C[C@H]1C(=O)N[C@@H](C[C@@H]1CCNC1=O)C(=O)COc1ccc(F)cc1F (single isomer, unassigned) [Example 66, (5R*)-N-{(2S)-4-(2,4-difluorophenoxy)-3-oxo-1-[(3S)-2-oxopyrrolidin-3-yl]butan-2-yl}-6-[N-(methanesulfonyl)-L-valyl]-6-azaspiro[2.5]octane-5-carboxamide, DIAST-2] | 15.7 | – | 669 | –
7 | CC(C)C[C@@H](C(=O)N1C[C@H]2[C@@H]([C@H]1C(=O)N[C@@H](C[C@@H]1CCNC1=O)C(=O)COc1cc(C(F)(F)F)nn1C)C2(C)C)N(C)C(C)C (single isomer, unassigned) [Example 73, (1R,2S,5S)-6,6-dimethyl-3-[N-methyl-N-(propan-2-yl)-L-leucyl]-N-{(2R*)-4-{[1-methyl-3-(trifluoromethyl)-1H-pyrazol-5-yl]oxy}-3-oxo-1-[(3S)-2-oxopyrrolidin-3-yl]butan-2-yl}-3-azabicyclo[3.1.0]hexane-2-carboxamide, DIAST-2] | 962 | – | 140 | –
8 | COCC(=O)[C@H](C[C@@H]1CCNC1=O)NC(=O)C1C[C@H](C(C)(C)C)CCN1C(=O)[C@@H](NS(=O)(=O)C(F)(F)F)C(C)C (single isomer, unassigned) [Example 77, (2R*,4S*)-4-tert-butyl-N-{(2S)-4-methoxy-3-oxo-1-[(3S)-2-oxopyrrolidin-3-yl]butan-2-yl}-1-[N-(trifluoromethanesulfonyl)-L-valyl]piperidine-2-carboxamide, DIAST-2] | > 10800 | > 100000 | – | –
9 | CCC(C(NC(=O)C(F)(F)F)C(=O)N1C[C@H]2[C@@H]([C@H]1C(=O)N[C@@H](C[C@@H]1CCNC1=O)C(=O)COc1ccc(F)cc1F)C2(C)C)C(F)(F)F (stereo in doubt) [Example 32, (1R,2S,5S)-N-{(2S)-4-(2,4-difluorophenoxy)-3-oxo-1-[(3S)-2-oxopyrrolidin-3-yl]butan-2-yl}-6,6-dimethyl-3-[3′,3′,3′-trifluoro-N-(trifluoroacetyl)-L-isoleucyl]-3-azabicyclo[3.1.0]hexane-2-carboxamide] | 2.42 | 98.9 | – | –
10 | CCC([C@H](NC(=O)C(F)(F)F)C(=O)N1C[C@H]2[C@@H]([C@H]1C(=O)N[C@@H](C[C@@H]1CCNC1=O)C(=O)COc1ccc(F)cc1F)C2(C)C)C(F)(F)F (stereo in doubt) [Example 57, (1R,2S,5S)-N-{(2S)-4-(2,4-difluorophenoxy)-3-oxo-1-[(3S)-2-oxopyrrolidin-3-yl]butan-2-yl}-6,6-dimethyl-3-[3′,3′,3′-trifluoro-N-(trifluoroacetyl)-L-isoleucyl]-3-azabicyclo[3.1.0]hexane-2-carboxamide] | 17.3 | 275 | – | –
11 | CCC([C@H](NS(=O)(=O)C(F)(F)F)C(=O)N1C[C@H]2[C@@H]([C@H]1C(=O)N[C@@H](C[C@@H]1CCNC1=O)C(=O)COc1ccc(F)cc1F)C2(C)C)C(F)(F)F (stereo in doubt) [Example 63, (1R,2S,5S)-N-{(2S)-4-(2,4-difluorophenoxy)-3-oxo-1-[(3S)-2-oxopyrrolidin-3-yl]butan-2-yl}-6,6-dimethyl-3-[3′,3′,3′-trifluoro-N-(trifluoromethanesulfonyl)-L-isoleucyl]-3-azabicyclo[3.1.0]hexane-2-carboxamide] | 54.2 | 5550 | – | –
12 | CC(C)[C@H](NC(=O)C(F)(F)F)C(=O)N1C[C@H]2[C@@H]([C@H]1C(=O)N[C@@H](C[C@@H]1CCNC1=O)C(=O)COc1ccc(F)cc1F)C2(C)C [Example 1, (1R,2S,5S)-N-{(2S)-4-(2,4-difluorophenoxy)-3-oxo-1-[(3S)-2-oxopyrrolidin-3-yl]butan-2-yl}-6,6-dimethyl-3-[N-(trifluoroacetyl)-L-valyl]-3-azabicyclo[3.1.0]hexane-2-carboxamide] | – | 26.9 | – | 2.02
13 | CC(C)[C@H](NC(=O)C(F)(F)F)C(=O)N1C[C@H]2[C@@H]([C@H]1C(=O)N[C@H](C[C@@H]1CCNC1=O)C(=O)COc1ccc(F)cc1F)C2(C)C [Example 2, (1R,2S,5S)-N-{(2R)-4-(2,4-difluorophenoxy)-3-oxo-1-[(3S)-2-oxopyrrolidin-3-yl]butan-2-yl}-6,6-dimethyl-3-[N-(trifluoroacetyl)-L-valyl]-3-azabicyclo[3.1.0]hexane-2-carboxamide] | – | 74.4 | – | 172
14 | CC(C)(C)[C@H](NS(=O)(=O)C(F)(F)F)C(=O)N1C[C@H]2[C@@H]([C@H]1C(=O)N[C@@H](C[C@@H]1CCNC1=O)C(=O)COc1ccc(F)cc1F)C2(C)C [Example 3, (1R,2S,5S)-N-{(2S)-4-(2,4-difluorophenoxy)-3-oxo-1-[(3S)-2-oxopyrrolidin-3-yl]butan-2-yl}-6,6-dimethyl-3-{3-methyl-N-[(trifluoromethyl)sulfonyl]-L-valyl}-3-azabicyclo[3.1.0]hexane-2-carboxamide] | – | 207 | – | 3.5
15 | CC(C)[C@H](NS(=O)(=O)C(F)(F)F)C(=O)N1C[C@H]2[C@@H]([C@H]1C(=O)N[C@@H](C[C@@H]1CCNC1=O)C(=O)COc1ccc(F)cc1F)C2(C)C [Example 4, (1R,2S,5S)-N-{(2S)-4-(2,4-difluorophenoxy)-3-oxo-1-[(3S)-2-oxopyrrolidin-3-yl]butan-2-yl}-6,6-dimethyl-3-{N-[(trifluoromethyl)sulfonyl]-L-valyl}-3-azabicyclo[3.1.0]hexane-2-carboxamide] | – | 395 | – | 6.34
16 | CC(C)[C@H](NS(=O)(=O)C(F)(F)F)C(=O)N1C[C@H]2[C@@H]([C@H]1C(=O)N[C@@H](C[C@@H]1CCNC1=O)C(=O)COc1cccc(C(F)(F)F)c1)C2(C)C [Example 5, (1R,2S,5S)-6,6-dimethyl-N-{(2S)-3-oxo-1-[(3S)-2-oxopyrrolidin-3-yl]-4-[3-(trifluoromethyl)phenoxy]butan-2-yl}-3-{N-[(trifluoromethyl)sulfonyl]-L-valyl}-3-azabicyclo[3.1.0]hexane-2-carboxamide] | – | 205 | – | 10.6
17 | Cn1nc(C(F)(F)F)cc1OCC(=O)[C@H](C[C@@H]1CCNC1=O)NC(=O)[C@@H]1[C@@H]2[C@H](CN1C(=O)[C@@H](NS(=O)(=O)C(F)(F)F)C(C)(C)C)C2(C)C [Example 6, (1R,2S,5S)-6,6-dimethyl-N-{(2S)-4-{[1-methyl-3-(trifluoromethyl)-1H-pyrazol-5-yl]oxy}-3-oxo-1-[(3S)-2-oxopyrrolidin-3-yl]butan-2-yl}-3-{3-methyl-N-[(trifluoromethyl)sulfonyl]-L-valyl}-3-azabicyclo[3.1.0]hexane-2-carboxamide] | – | 735 | – | 19.8
18 | CC(C)(C)[C@H](NS(=O)(=O)C(F)(F)F)C(=O)N1C[C@H]2[C@@H]([C@H]1C(=O)N[C@@H](C[C@@H]1CCNC1=O)C(=O)COc1ccc(F)c(F)c1)C2(C)C [Example 114, (1R,2S,5S)-N-{(2S)-4-(3,4-difluorophenoxy)-3-oxo-1-[(3S)-2-oxopyrrolidin-3-yl]butan-2-yl}-6,6-dimethyl-3-[3-methyl-N-(trifluoromethanesulfonyl)-L-valyl]-3-azabicyclo[3.1.0]hexane-2-carboxamide] | 2.53 | – | – | –
